Measured values from patent US9834550B2, “Pyridopyrimidinone compounds for modulating the catalytic activity of histone lysine demethylases (KDMs)” (Dong-A Socio Holdings Co., Ltd., priority 2014, dated 2017).

Biological target: T1, Recombinant human JARID1B/KDM5B (Homo sapiens, UniProt Q9UGL1)
T1 construct: purchased Active Motif 31432; host or cells: Sf9 insect cells
Assay: LANCE Ultra TR-FRET demethylase assay with FLAG-tagged JARID1B
Format: biochemical
Conditions: 100 nM compound; 500 nM biotinylated H3K4me3 peptide substrate
In short: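 Sf9-expressed N-FLAG full-length JARID1B (10–30 nM) preincubated 5 min with compound at 20, 1 or 0.1 uM (1% DMSO), then 500 nM biotin-H3K4me3 peptide, 500 uM 2-OG, 25 uM Fe(II), 2 mM ascorbate added; 30 min at room temperature in Hepes pH 7.5. H3K4me2/1 product read by TR-FRET 665/590 ratio.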

T1 sequence (Q9UGL1 whole entry): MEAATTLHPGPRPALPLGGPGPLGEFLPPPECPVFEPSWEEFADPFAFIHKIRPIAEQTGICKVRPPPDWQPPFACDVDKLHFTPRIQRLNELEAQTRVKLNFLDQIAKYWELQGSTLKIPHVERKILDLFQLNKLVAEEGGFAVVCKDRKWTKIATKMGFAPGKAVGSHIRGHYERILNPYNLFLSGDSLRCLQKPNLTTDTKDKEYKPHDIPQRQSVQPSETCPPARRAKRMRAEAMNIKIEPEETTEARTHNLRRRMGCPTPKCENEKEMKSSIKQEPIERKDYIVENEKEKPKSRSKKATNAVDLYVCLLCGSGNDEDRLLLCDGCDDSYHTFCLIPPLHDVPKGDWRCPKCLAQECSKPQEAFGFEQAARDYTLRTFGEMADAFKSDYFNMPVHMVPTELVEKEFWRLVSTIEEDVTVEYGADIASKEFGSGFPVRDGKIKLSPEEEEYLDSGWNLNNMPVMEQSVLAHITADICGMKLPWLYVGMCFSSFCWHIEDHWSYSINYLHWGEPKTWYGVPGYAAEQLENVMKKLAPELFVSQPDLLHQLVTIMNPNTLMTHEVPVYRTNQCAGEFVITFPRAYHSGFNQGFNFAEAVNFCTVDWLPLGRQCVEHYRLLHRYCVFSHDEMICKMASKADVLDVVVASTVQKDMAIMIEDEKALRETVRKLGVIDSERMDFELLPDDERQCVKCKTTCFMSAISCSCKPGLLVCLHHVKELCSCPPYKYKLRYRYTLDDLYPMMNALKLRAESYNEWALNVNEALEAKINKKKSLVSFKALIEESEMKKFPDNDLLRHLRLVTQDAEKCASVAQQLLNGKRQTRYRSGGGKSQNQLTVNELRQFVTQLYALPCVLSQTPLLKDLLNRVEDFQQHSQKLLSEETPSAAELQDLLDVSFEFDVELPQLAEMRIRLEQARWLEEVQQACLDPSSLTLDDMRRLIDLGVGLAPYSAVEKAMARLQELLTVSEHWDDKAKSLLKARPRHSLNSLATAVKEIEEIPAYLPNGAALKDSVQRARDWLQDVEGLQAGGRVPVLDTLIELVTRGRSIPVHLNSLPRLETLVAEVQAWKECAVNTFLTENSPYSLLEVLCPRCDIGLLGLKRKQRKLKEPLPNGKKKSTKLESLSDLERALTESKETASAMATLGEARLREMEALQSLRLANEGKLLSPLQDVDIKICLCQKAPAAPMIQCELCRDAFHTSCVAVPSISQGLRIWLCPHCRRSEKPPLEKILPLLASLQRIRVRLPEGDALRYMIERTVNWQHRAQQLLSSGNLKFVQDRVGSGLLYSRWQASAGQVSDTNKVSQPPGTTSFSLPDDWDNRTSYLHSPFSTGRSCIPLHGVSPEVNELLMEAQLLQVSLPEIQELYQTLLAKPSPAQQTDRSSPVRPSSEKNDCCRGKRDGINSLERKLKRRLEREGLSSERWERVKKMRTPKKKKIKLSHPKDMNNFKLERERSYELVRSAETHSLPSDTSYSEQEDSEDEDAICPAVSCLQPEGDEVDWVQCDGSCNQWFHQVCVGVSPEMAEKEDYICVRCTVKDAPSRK

inhibition at 0.1 µM | SMILES
20 to 50% | O=c1[nH]c(COc2ccc(F)c(Cl)c2)nc2c(CNCc3ccco3)nccc12 [Example 171, 2-((3-chloro-4-fluorophenoxy)methyl)-8-(((furan-2-ylmethyl)amino)methyl)pyrido[3,4-d]pyrimidin-4(3H)-one]
> 50% | O=c1[nH]c(COc2ccc(F)c(Cl)c2)nc2c(CNCc3cccnc3)nccc12 [Example 172, 2-((3-chloro-4-fluorophenoxy)methyl)-8-(((pyridin-3-ylmethyl)amino)methyl)pyrido[3,4-d]pyrimidin-4(3H)-one]
20 to 50% | O=c1[nH]c(COc2ccc(F)c(Cl)c2)nc2c(CNCc3ccncc3)nccc12 [Example 173, 2-((3-chloro-4-fluorophenoxy)methyl)-8-(((pyridin-4-ylmethyl)amino)methyl)pyrido[3,4-d]pyrimidin-4(3H)-one]
20 to 50% | CN(C)C(=O)c1ccc(CNCc2nccc3c(=O)[nH]c(COc4ccc(F)c(Cl)c4)nc23)o1 [Example 174, 5-((((2-((3-chloro-4-fluorophenoxy)methyl)-4-oxo-3,4-dihydropyrido[3,4-d]pyrimidin-8-yl)methyl)amino)methyl)-N,N-dimethylfuran-2-carboxamide]
20 to 50% | Cc1nccn1CCNCc1nccc2c(=O)[nH]c(COc3ccc(F)c(Cl)c3)nc12 [Example 175, 2-((3-chloro-4-fluorophenoxy)methyl)-8-(((2-(2-methyl-1H-imidazol-1-yl)ethyl)amino)methyl)pyrido[3,4-d]pyrimidin-4(3H)-one]
20 to 50% | O=c1[nH]c(COc2ccc(F)c(Cl)c2)nc2c(CNCCc3cccs3)nccc12 [Example 176, 2-((3-chloro-4-fluorophenoxy)methyl)-8-(((2-(thiophen-2-yl)ethyl)amino)methyl)pyrido[3,4-d]pyrimidin-4(3H)-one]
20 to 50% | Cc1cc(CNCc2nccc3c(=O)[nH]c(COc4ccc(F)c(Cl)c4)nc23)on1 [Example 177, 2-((3-chloro-4-fluorophenoxy)methyl)-8-((((3-methylisoxazol-5-yl)methyl)amino)methyl)pyrido[3,4-d]pyrimidin-4(3H)-one]
20 to 50% | CN1CCOC(CNCc2nccc3c(=O)[nH]c(COc4ccc(F)c(Cl)c4)nc23)C1 (stereo not drawn) [Example 178, 2-((3-chloro-4-fluorophenoxy)methyl)-8-((((4-methylmorpholin-2-yl)methyl)amino)methyl)pyrido[3,4-d]pyrimidin-4(3H)-one]
20 to 50% | O=c1[nH]c(COc2ccc(F)c(Cl)c2)nc2c(CNCc3ncco3)nccc12 [Example 179, 2-((3-chloro-4-fluorophenoxy)methyl)-8-(((oxazol-2-ylmethyl)amino)methyl)pyrido[3,4-d]pyrimidin-4(3H)-one]
20 to 50% | O=c1[nH]c(COc2ccc(F)c(Cl)c2)nc2c(CNCc3ncccn3)nccc12 [Example 180, 2-((3-chloro-4-fluorophenoxy)methyl)-8-(((pyrimidin-2-ylmethyl)amino)methyl)pyrido[3,4-d]pyrimidin-4(3H)-one]
20 to 50% | O=c1[nH]c(COc2ccc(F)c(Cl)c2)nc2c(CNCc3cccs3)nccc12 [Example 181, 2-((3-chloro-4-fluorophenoxy)methyl)-8-(((thiophen-2-ylmethyl)amino)methyl)pyrido[3,4-d]pyrimidin-4(3H)-one]
20 to 50% | O=c1[nH]c(COc2ccc(F)c(Cl)c2)nc2c(CNCc3ccnc(Cl)c3)nccc12 [Example 182, 2-((3-chloro-4-fluorophenoxy)methyl)-8-((((2-chloropyridin-4-yl)methyl)amino)methyl)pyrido[3,4-d]pyrimidin-4(3H)-one]
< 20% | Cc1cc(C)n(CCNCc2nccc3c(=O)[nH]c(COc4ccc(F)c(Cl)c4)nc23)n1 [Example 183, 2-((3-chloro-4-fluorophenoxy)methyl)-8-(((2-(3,5-dimethyl-1H-pyrazol-1-yl)ethyl)amino)methyl)pyrido[3,4-d]pyrimidin-4(3H)-one]
< 20% | Cc1cccc(CCNCc2nccc3c(=O)[nH]c(COc4ccc(F)c(Cl)c4)nc23)n1 [Example 184, 2-((3-chloro-4-fluorophenoxy)methyl)-8-(((2-(6-methylpyridin-2-yl)ethyl)amino)methyl)pyrido[3,4-d]pyrimidin-4(3H)-one]
20 to 50% | O=C1c2cccnc2CN1CCCNCc1nccc2c(=O)[nH]c(COc3ccc(F)c(Cl)c3)nc12 [Example 185, 2-((3-chloro-4-fluorophenoxy)methyl)-8-(((3-(5-oxo-5,7-dihydro-6H-pyrrolo[3,4-b]pyridin-6-yl)propyl)amino)methyl)pyrido[3,4-d]pyrimidin-4(3H)-one]
20 to 50% | O=c1[nH]c(COc2ccc(F)c(Cl)c2)nc2c(CNCCc3ccccn3)nccc12 [Example 186, 2-((3-chloro-4-fluorophenoxy)methyl)-8-(((2-(pyridin-2-yl)ethyl)amino)methyl)pyrido[3,4-d]pyrimidin-4(3H)-one]
> 50% | O=c1[nH]c(COc2ccc(F)c(Cl)c2)nc2c(CNC[C@@H]3CNCCO3)nccc12 [Example 187, (R)-2-((3-chloro-4-fluorophenoxy)methyl)-8-(((morpholin-2-ylmethyl)amino)methyl)pyrido[3,4-d]pyrimidin-4(3H)-one]

inhibition at 0.1 µM | SMILES
> 50% | O=c1[nH]c(COc2ccc(F)c(Cl)c2)nc2c(CNCC3CCN(CCO)CC3)nccc12 [Example 188, 2-((3-chloro-4-fluorophenoxy)methyl)-8-((((1-(2-hydroxyethyl)piperidin-4-yl)methyl)amino)methyl)pyrido[3,4-d]pyrimidin-4(3H)-one]
> 50% | COCCN1CCC(CNCc2nccc3c(=O)[nH]c(COc4ccc(F)c(Cl)c4)nc23)CC1 [Example 189, 2-((3-chloro-4-fluorophenoxy)methyl)-8-((((1-(2-methoxyethyl)piperidin-4-yl)methyl)amino)methyl)pyrido[3,4-d]pyrimidin-4(3H)-one]
> 50% | O=c1[nH]c(COc2ccc(F)c(Cl)c2)nc2c(CNC[C@H]3CNCCO3)nccc12 [Example 190, (S)-2-((3-chloro-4-fluorophenoxy)methyl)-8-(((morpholin-2-ylmethyl)amino)methyl)pyrido[3,4-d]pyrimidin-4(3H)-one]
< 20% | O=c1[nH]c(C2CCCC2)nc2c(CNCC3CCNCC3)nccc12 [Example 191, 2-cyclopentyl-8-(((piperidin-4-ylmethyl)amino)methyl)pyrido[3,4-d]pyrimidin-4(3H)-one]
< 20% | CN1CCC(CNCc2nccc3c(=O)[nH]c(C4CCCC4)nc23)CC1 [Example 192, 2-cyclopentyl-8-((((1-methylpiperidin-4-yl)methyl)amino)methyl)pyrido[3,4-d]pyrimidin-4(3H)-one]
< 20% | O=c1[nH]c(C2CCCO2)nc2c(CNCC3CCNCC3)nccc12 (stereo not drawn) [Example 193, 8-(((piperidin-4-ylmethyl)amino)methyl)-2-(tetrahydrofuran-2-yl)pyrido[3,4-d]pyrimidin-4(3H)-one]
< 20% | CN1CCC(CNCc2nccc3c(=O)[nH]c(C4CCCO4)nc23)CC1 (stereo not drawn) [Example 194, 8-((((1-methylpiperidin-4-yl)methyl)amino)methyl)-2-(tetrahydrofuran-2-yl)pyrido[3,4-d]pyrimidin-4(3H)-one]
< 20% | O=c1[nH]c(C2CCOC2)nc2c(CNCC3CCNCC3)nccc12 (stereo not drawn) [Example 195, 8-(((piperidin-4-ylmethyl)amino)methyl)-2-(tetrahydrofuran-3-yl)pyrido[3,4-d]pyrimidin-4(3H)-one]
< 20% | CN1CCC(CNCc2nccc3c(=O)[nH]c(C4CCOC4)nc23)CC1 (stereo not drawn) [Example 196, 8-((((1-methylpiperidin-4-yl)methyl)amino)methyl)-2-(tetrahydrofuran-3-yl)pyrido[3,4-d]pyrimidin-4(3H)-one]
20 to 50% | O=c1[nH]c(C2Cc3ccccc3O2)nc2c(CNCC3CCNCC3)nccc12 (stereo not drawn) [Example 197, 2-(2,3-dihydrobenzofuran-2-yl)-8-(((piperidin-4-ylmethyl)amino)methyl)pyrido[3,4-d]pyrimidin-4(3H)-one]
20 to 50% | CN1CCC(CNCc2nccc3c(=O)[nH]c(C4Cc5ccccc5O4)nc23)CC1 (stereo not drawn) [Example 198, 2-(2,3-dihydrobenzofuran-2-yl)-8-((((1-methylpiperidin-4-yl)methyl)amino)methyl)pyrido[3,4-d]pyrimidin-4(3H)-one]
< 20% | O=c1[nH]c(C2CCc3ccccc3O2)nc2c(CNCC3CCNCC3)nccc12 (stereo not drawn) [Example 199, 2-(chroman-2-yl)-8-(((piperidin-4-ylmethyl)amino)methyl)pyrido[3,4-d]pyrimidin-4(3H)-one]
20 to 50% | CN1CCC(CNCc2nccc3c(=O)[nH]c(C4CCc5ccccc5O4)nc23)CC1 (stereo not drawn) [Example 200, 2-(chroman-2-yl)-8-((((1-methylpiperidin-4-yl)methyl)amino)methyl)pyrido[3,4-d]pyrimidin-4(3H)-one]
< 20% | CN1CCC(CNCc2nccc3c(=O)[nH]c(C4Cc5ccccc5C4)nc23)CC1 [Example 201, 2-(2,3-dihydro-1H-inden-2-yl)-8-((((1-methylpiperidin-4-yl)methyl)amino)methyl)pyrido[3,4-d]pyrimidin-4(3H)-one]
20 to 50% | O=c1[nH]c(COCc2ccccc2)nc2c(CNCC3CCNCC3)nccc12 [Example 202, 2-((benzyloxy)methyl)-8-(((piperidin-4-ylmethyl)amino)methyl)pyrido[3,4-d]pyrimidin-4(3H)-one]
> 50% | CN1CCC(CNCc2nccc3c(=O)[nH]c(COCc4ccccc4)nc23)CC1 [Example 203, 2-((benzyloxy)methyl)-8-((((1-methylpiperidin-4-yl)methyl)amino)methyl)pyrido[3,4-d]pyrimidin-4(3H)-one]
